Data published in ChEMBL document CHEMBL4373736, “Synthesis and biological evaluation of panaxatriol derivatives against myocardial ischemia/reperfusion injury in the rat” (Eur J Med Chem, 2020).
Activity calls are given as the source filed them. The rule behind the calls is not given here.

Key:
[1] = test system: Rattus norvegicus; assay: (§1) Cardioprotective activity in Sprague-Dawley rat model of LAD coronary artery ligation-induced ischemia/reperfusion assessed as infarct size of left ventricle size at 20 mg/kg, ig pretreated twice a day for 3 days and measured 24 hrs post-reperfusion by TTC staining based assay (reference value: 49.1 %); assay type: functional
[2] = test system: Rattus norvegicus; assay: Cardioprotective activity in ig dosed Sprague-Dawley rat model of LAD coronary artery ligation-induced ischemia/reperfusion assessed as myocardial cell swelling at 10 to 40 mg/kg, ig pretreated twice a day for 3 days and measured 24 hrs post-reperfusion by hematoxylin and eosin staining based assay; assay type: functional, organism-based
[3] = test system: Cardiac muscle cell; assay: Cytoprotective activity against OGD/reperfusion induced injury in Sprague-Dawley rat cardiomyocytes assessed as effect on cell viability at 1 uM pretreated for 24 hrs followed by OGD for 2 hrs and subsequent reperfusion for 24 hrs (reference value: 43.9 to 45.4 +/- 1.1 %); assay type: functional
[4] = test system: Rattus norvegicus; assay: Cardioprotective activity in ig dosed Sprague-Dawley rat model of LAD coronary artery ligation-induced ischemia/reperfusion assessed as reduction in serum cardiac troponin1 level pretreated twice a day for 3 days and measured 24 hrs post-reperfusion; assay type: functional, organism-based
[5] = test system: Rattus norvegicus; assay: Cardioprotective activity in ig dosed Sprague-Dawley rat model of LAD coronary artery ligation-induced ischemia/reperfusion assessed as change in myocardial structure at 10 to 40 mg/kg, ig pretreated twice a day for 3 days and measured 24 hrs post-reperfusion by hematoxylin and eosin staining based assay; assay type: functional, organism-based
[6] = test system: Cardiac muscle cell; assay: Cytotoxicity against Sprague-Dawley rat cardiomyocytes assessed as inhibition of cell growth at 10 uM treated for 50 hrs by MTT assay; assay type: cell-based
[7] = test system: Cardiac muscle cell; assay: Cytoprotective activity against OGD/reperfusion induced injury in Sprague-Dawley rat cardiomyocytes assessed as effect on cell viability at 10 uM pretreated for 24 hrs followed by OGD for 2 hrs and subsequent reperfusion for 24 hrs (reference value: 43.9 to 45.4 +/- 1.1 %); assay type: functional
[8] = test system: Cardiac muscle cell; assay: Cytoprotective activity against OGD/reperfusion induced injury in Sprague-Dawley rat cardiomyocytes assessed as effect on cell viability at 0.1 uM pretreated for 24 hrs followed by OGD for 2 hrs and subsequent reperfusion for 24 hrs (reference value: 43.9 to 45.4 +/- 1.1 %); assay type: functional
[9] = test system: Rattus norvegicus; assay: Cardioprotective activity in ig dosed Sprague-Dawley rat model of LAD coronary artery ligation-induced ischemia/reperfusion assessed as as infarct size of left ventricle size pretreated twice a day for 3 days and measured 24 hrs post-reperfusion by TTC staining based assay; assay type: functional, organism-based
[10] = test system: Rattus norvegicus; assay: as §1, with “40” for “20”; assay type: functional

SMILES	Activity [1] [%]	Activity [2]	Activity [3] [%]	inhibition [4]	Activity [5]	Activity [6]	Activity [7] [%]	Activity [8] [%]	Activity [9]	Activity [10] [%]
C[C@H](CS)C(=O)N1CCC[C@H]1C(=O)O [CAPTOPRIL]	34									
CC1(C)CCC[C@](C)([C@H]2CC[C@]3(C)[C@@H]2[C@H](O)C[C@@H]2[C@@]4(C)Cc5c(C(=O)O)noc5C(C)(C)[C@@H]4[C@H](O)C[C@]23C)O1		inactive	79.2	Dose-dependent effect	inactive	Non-Toxic	89.2	68.2	Dose-dependent effect	20.5
